# Laboratory results: patent publication US11773086B2, “Fungal modulators” (TRUSTEES OF BOSTON UNIVERSITY, priority 2020, dated 2023)
# How the values were obtained:
# C. auris efflux = experiment: Nile red accumulation assay (flow cytometry); assay type: cell-based, Candida auris
# Procedure: FIGS. 5A, 5B and 6 illustrate that azoffluxin increases fluconazole (FLC) bioavailability by inhibiting Cdr1-mediated efflux in C. auris. FIG. 5A show C. auris strains grown to exponential phase and treated with 50 μM azoffluxin for 10 minutes when indicated, followed by addition of Nile red for 20 minutes. Cells were then imaged on the DIC and DsRed channels at equivalent exposure times. FIG. 5B: depicts a flow cytometer and histograms of the cells, showing the fluorescence on the PE channel per event for ˜20,000 events. […] FIG. 6 illustrates azoffluxin increases fluconazole (FLC) bioavailability by inhibiting Cdr1-mediated efflux in C. auris. Dose response assays were conducted with a C. auris parental strain, a strain with the efflux pump gene CDR1 deleted, and a strain with the efflux pump CDR4-1 deleted. FLC was titered in a two-fold dilution on the x-axis in the absence and presence of 50 μM azoffluxin. Growth was measured at 48 hours using OD600 and normalized to a no drug control well (see color bar).
# Cellular efflux was determined by measuring Nile red accumulation, as previously described. Cells were subcultured from an OD600 0.1 in YPD for 4 hours until exponential phase was reached. […] To quantify fluorescence, a CytoFlex Flow Cytometer (Beckman Coulter) was used. […] Each sample was run using the CytExpert Software until ˜20,000 events had been recorded. […]
# C. neoformans = experiment: Fluconazole efficacy with azoffluxin; assay type: cell-based, Cryptococcus neoformans; details: despite increasing Nile red
# Text: FIGS. 11A and 11B illustrate Nile red Accumulation in C. albicans, C. glabrata, and C. neoformans.
# [1] = Stability and activity in plasma; assay type: in vitro ADME
# [2] = test system: FLC-resistant Candida auris; experiment: Checkerboard (dose-response matrix) with fluconazole, FICI; assay type: cell-based
# Procedure: Generally, the synergy is measured by determining the fractional inhibitory concentration (FIC) value of the combination. […] FIC values for both agents in a particular square/well are calculated in this way followed by determination of the FIC index (sum of the FICs of each agent in the particular square/well).
# (§1) Compound potency was assessed alone by dose response assays or in combination with another compound by dose-response matrixes in 96-well plates, or 384-well, flat-bottom, microtiter plates (Corning) as previously described. Plates were incubated at 30° C. for the indicated time period. Growth was quantified by measuring OD600 and corrected for medium background. All strains were assessed in biological duplicate experiments with technical duplicates. Growth was normalized to untreated controls and plotted as a heat map using Java TreeView 1.1.6r4. For dose-response matrixes fractional inhibitory concentration index at 90% growth inhibition (FICI90) was calculated as previously described. The fluconazole Etest susceptibility assay was performed as previously described. Briefly, 200 μL of 5×10^6 cells/mL were plated on YPD agar (1%) plates with either with 50 μM azoffluxin or containing DMSO.
# C. auris [3] = experiment: microbe, parasite or virus in culture; assay type: cell-based, Candida auris; details: 50 μM azoffluxin, Etest
# Procedure: FIGS. 2A-2E illustrate the above-described screening of the BU-CMD which identified azoffluxin as a fluconazole (FLC) potentiator against C. auris. […] Growth, as determined by optical density at 600 nm (OD600), is plotted in the presence of each CMD compound alone on the y-axis and in combination with FLC on the x-axis. Dotted lines represent 7-median absolute deviations from the median for each condition. […] FIG. 2B depicts the synergistic interactions. […] Growth was measured by the OD600 and normalized to the no drug control (see color bar). The fractional inhibitory concentration index (FICI) was calculated to determine the chemical interaction, with a value below 0.5 indicating synergy. […] FIG. 2D depicts FLC Etest strips in the presence and absence of 50 μM azoffluxin. A total of 1×10^6 C. auris cells were added to YPD agar plates, the E-test strip was added, and plates were incubated at 30° C. for 24 hours prior to imaging. FIG. 2. […] Dose-response assay where a two-fold dilution of azoffluxin was titered starting from 50 μM. Indicated titrations have a background concentration of FLC of 32 μg/mL, 4 μg/mL, 0.25 μg/mL, and 0.5 μg/mL for C. auris Ci6684 (Erg11Y132F), C. albicans (SN95), C. glabrata (BG2) or S. cerevisiae (BY4741), respectively. […] Dose response assays were incubated for 48 hours at 30° C. in RPMI. Growth in each well was plotted by the relative optical density to the respective no drug control (See color bar in FIG. 2B).
# as §1, with “Growth was normalized to untreated controls and plotted as a heat map using Java TreeView 1.1.6r4.” left out, “The fluconazole Etest susceptibility assay was performed as previously described. Briefly, 200 μL of 5×10^6 cells/mL were plated on YPD agar (1%) plates with either with 50 μM azoffluxin or containing DMSO.” left out
# C. auris [4] = experiment: Dose-response of other antifungal compounds with or without 50 μM azoffluxin; assay type: cell-based, Candida auris; details: 48 hours, YPD
# Procedure: FIGS. 7A and 7B illustrates that azoffluxin potentiates intracellular acting compounds against C. auris, to a similar degree as deletion of CDR1. […] Cells were then imaged on the DIC and DsRed channels at equivalent exposure times as those in FIG. 5A. FIG. 7B depicts a dose response assays conducted with a C. auris parental strain in the absence and presence of 50 μM azoffluxin where indicated, as well as with a strain with the efflux pump gene CDR1 deleted. Indicated compounds were titered in a two-fold dilution on the x-axis. Growth was measured after 48 hours in YPD using OD600 and normalized to a no drug control well (see color bar).
# as §1, with “The fluconazole Etest susceptibility assay was performed as previously described. Briefly, 200 μL of 5×10^6 cells/mL were plated on YPD agar (1%) plates with either with 50 μM azoffluxin or containing DMSO.” left out
smiles,measurement,setting,value
C=C(C)C[C@@H](O)COc1cc2c(cc1C1(c3cc4c(cc3OC[C@H](O)CC(=C)C)OCO4)C(=O)Nc3cc(F)ccc31)OCO2 [CMLD012336],increase in relative cell-associated Nile red signal,"C. auris efflux; 50 μM azoffluxin, C. auris Ci6684",42 fold
same,increase in Nile red accumulation,C. auris efflux; Clade III isolates B11221 and B11222,36-40 fold
same,enhancement of fluconazole efficacy,C. neoformans,did not enhance the efficacy of fluconazole
same,stability in plasma,[1],stable and retains activity in plasma
same,interaction with fluconazole,[2]; Clade III isolate B12037 lacking Erg11 V125A/F126L and Mrr1 N647T,potent synergistic interaction
same,fractional inhibitory concentration index (FICI),"[2]; combination with fluconazole, C. auris Ci6684 (Erg11 Y132F), <0.5 = synergy",0.25
same,FICI,"[2]; fractional inhibitory concentration index for enhancement of FLC activity in FLC-resistant Candida auris, <0.5 strong synergy, 2 = no synergy",0.130
same,potentiation of fluconazole across C. auris clades,"[2]; isolates of the four major clades, Clade III the exception",potentiated fluconazole in multiple isolates from three of the four major clades
same,fluconazole MIC in presence of azoffluxin,C. auris [3],16 µg/mL
same,reduction of fluconazole MIC,C. auris [3]; solid medium,> 16 fold
same,sensitivity to caspofungin and amphotericin B,C. auris [4],no impact on sensitivity
same,"sensitization to gepinacin, cerulenin, and cycloheximide",C. auris [4],to the same extent as CDR1 deletion
